Source: patent US20250222050A1, “Chlorella and Corn Leaf Extract Compositions, Their Production, and Methods of Use” (Unigen, Inc., priority 2024, published 2025)

Experiments:
Assay type in all cases: in vivo
[1] = tested on: BALB/C mice; assay: Sleep latency induced by barbital sodium
Experimental: Purpose bred BALB/C mice (n=405; male, 20 g-22 g) were purchased from Beijing Hua Fukang biological technologies Inc (Beijing, China). The study was carried out at Testing Center for the functions of Health Foods, College of Arts and science of Beijing Union University (Beijing, China). Mice were kept in specific pathogen free, temperature-controlled room and fed with rodent diet purchased from Beijing Hua Fukang biological technologies Inc (Beijing, China). Three consecutive studies were carried out. Mice were randomly assigned into 9 groups for each experiment. Fifteen mice were allocated in each group. […] The third experiment was set to detect sleep latency induced by barbital sodium (Lot #: 527B051, Merck).
Mice were intraperitoneally injected with 240 mg/kg barbital sodium (0.2 mL/20 g body weight), 15 min after the last test material administration. Sleep latency was recorded and the difference in sleep time between the tested substance groups and vehicle control were determined. […]

[2] = tested on: BALB/C mice; assay: Sleep time (duration) after pentobarbital sodium; settings: oral 1 mg/kg, 46 mg/kg pentobarbital sodium i.p. 15 min after last dose
Experimental: Purpose bred BALB/C mice (n=405; male, 20 g-22 g) were purchased from Beijing Hua Fukang biological technologies Inc (Beijing, China). […] Mice were kept in specific pathogen free, temperature-controlled room and fed with rodent diet purchased from Beijing Hua Fukang biological technologies Inc (Beijing, China). Three consecutive studies were carried out. Mice were randomly assigned into 9 groups for each experiment. Fifteen mice were allocated in each group.
The amount of time spent sleeping was determined by injecting mice with 46 mg/kg pentobarbital sodium, intraperitoneally, 15 minutes after administration of the last dose of the test materials. The sleep time of each mouse was recorded and the difference of sleep time between tested materials and vehicle control were analyzed.

[3] = tested on: BALB/C mice; assay: 60-minute direct effect (direct sleep) test, no pentobarbital
Experimental: Purpose bred BALB/C mice (n=405; male, 20 g-22 g) were purchased from Beijing Hua Fukang biological technologies Inc (Beijing, China). The study was carried out at Testing Center for the functions of Health Foods, College of Arts and science of Beijing Union University (Beijing, China). Mice were kept in specific pathogen free, temperature-controlled room and fed with rodent diet purchased from Beijing Hua Fukang biological technologies Inc (Beijing, China). Three consecutive studies were carried out. Mice were randomly assigned into 9 groups for each experiment. Fifteen mice were allocated in each group. The first experiment was set to determine the sleep incidence effect of test materials. The second experiment was designed to detect the total sleep time under the hypnotic subthreshold dose of pentobarbital sodium (Lot #: 34E10320, Beijing Dingguo Changsheng Biotechnology Co. Ltd). The third experiment was set to detect sleep latency induced by barbital sodium (Lot #: 527B051, Merck).
Zea mays (corn) leaf extract standardized at not less than 0.2% 6-MBOA (Lot #: FP210105-01) and Chlorella Powder (Lot #: 222A) were suspended with sterile water. Melatonin purchased from By-Health Co. Ltd. (Beijing, China) was used as a reference compound in each study. All mice were orally administrated with test materials in a volume of 20 mL/kg BW/day. Study lasted for 31 days. […]

[4] = tested on: BALB/C mice; assay: Sleep incidence under hypnotic subthreshold dose of pentobarbital; settings: mice n=15, oral 1 mg/kg; 32 mg/kg pentobarbital i.p. 15 min after last dose
Experimental: The numbers of mice that lost turnover to the right side over 1 min following injection of pentobarbital were recorded. The incidence of sleeping mice was analyzed to compare the difference between the tested substance groups and vehicle control. All the experiments were conducted at night.

COc1ccc2[nH]cc(CCNC(C)=O)c2c1 [Melatonin]
sleep latency versus vehicle control (in words) ([1]; melatonin 1 mg/kg, chlorella 5,000 mg/kg, combination 250 + 5,000 mg/kg): significantly shortened
Latent Time (sleep onset latency) ([1]; mice, oral 1 mg/kg, 240 mg/kg barbital sodium i.p. 15 min after last dose): 37.8 ± 12.8 min
Sleep Time (sleep duration) [2]: 59.7 ± 13.0 min
Numbers of sleeping ([3]; mice n=15, oral 1 mg/kg, 1 h after administration): 0
Sleep Time ([3]; mice, oral 1 mg/kg): 0 min
Incidence (sleep incidence) [4]: 60%
